# Read-outs that look alike come from different tables or passages of the source.
# Experiments:
# [1] = test system: Hela human cervical carcinoma; assay: In vitro anti-tumor IC50 (MTT), Hela; format: cell-based; conditions: Table 4
# Method: (§1) (1) Single cell suspension was seeded into 96-well plates (the cells was diluted in the PRMI-1640 minimum medium to 3×10^4 cells/ml, […] diluted cells/well). […] The experiments were performed in quadruplicate.
# (§2) (2) The medium was removed. Solutions of the anti-tumor agents (50 compounds) were prepared in a freshly prepared medium at serial concentrations. […] of the solution was added into each well. Incubation was continued for 48 hours.
# (§3) (3) 20 ug of 2 mg/ml MTT was added into each well, and incubated for 4 hours.
# (§4) (4) The medium was removed from the well. The microplates were swiftly turned down to throw-off the medium. […] of DMSO was added into each well, and vortexed at room temperature for 10 minutes.
# (§5) (5) OD value (λ=570 nm) was measured with an Enzyme-Linked Detector.
# (§6) (6) The graph of cell vitality was plotted, and IC50 was calculated.
# [2] = test system: MCF-7 human mammary adenocarcinoma; assay: In vitro anti-tumor IC50 (MTT), MCF-7; format: cell-based; conditions: Table 4
# Method: as §1, §2, §3, §4, §5, §6
# [3] = test system: A-549 human lung adenocarcinoma; assay: In vitro anti-tumor IC50 (MTT), A-549; format: cell-based; conditions: Table 4
# Method: as §1, §2, §3, §4, §5, §6
# [4] = test system: Bel-7402 human hepatic carcinoma; assay: In vitro anti-tumor IC50 (MTT), Bel-7402; format: cell-based; conditions: Table 4
# Method: as §1, §2, §3, §4, §5, §6
# [5] = test system: HL-60 human promyelocytic leukemia; assay: In vitro anti-tumor IC50 (MTT), HL-60; format: cell-based; conditions: Table 4
# Method: as §1, §2, §3, §4, §5, §6
# [6] = test system: mouse grafted sarcoma S-180; assay: Activity against mouse grafted sarcoma S-180; format: in vivo, Kunming mice; conditions: for Inhibition rate (%) / Tumor weight: 30 mg/kg i.v., 6 doses; for Tumor weight: X ± SD, n = 10
# Method: (1) Experimental animals: Kunming mice weighting 18-22 g;
# (2) 100 mg/ml solutions of the 3 compounds were prepared, respectively, in water for injection (1% surface surfactant was added into the solution of Compound 6). 5-FU and camptothecine, 30 mg/kg and 1 mg/kg, respectively, were used as positive controls;
# 3. Route of Administration: Intravenous Injection.
# (§7) The experiments were performed according to “Guideline for New Drugs (Western medicines) in Pre-clinical Stages” issued by Bureau of Drug Policy & Administration of the People's Republic of China, and the relevant methods in “Methodology of Pharmaceutical Experiments”, Xu Shuyun et al. ed. 120 male Kunming mice weighting […] were allowed to grow 3 days. No abnormality was observed. The mice were routinely inoculated in oxter with mouse sarcoma S-180, and weighted 4 hrs. after inoculation. The mice were randomly divided into 12 groups, 10 mice/group. Group 1 was given 0.3 ml of physiological saline as negative control; Group 2 was given 5-FU as positive control, 0.6 mg/mouse; Group 3 was given hydroxycamptothecine as positive control, 0.02 mg/mouse. Groups 4, 5 and 6 were injected with 10% Compound 6, 0.4 ml/mouse, 0.2 ml/mouse, and 0.1 ml/mouse, respectively. Groups 7, 8 and 9 were injected with 10% Compound 8, 0.4 ml/mouse, 0.2 ml/mouse, and 0.1 ml/mouse, respectively. Groups 10, 11, and 12 were injected with 10% Compound 20, 0.4 ml/mouse, 0.2 ml/mouse, and 0.1 ml/mouse, respectively. The tested compounds were administered on the next day after inoculation, once a day on alternate days, 6 doses totally administered. On the next day after the end dose, the mice were weighed and sacrificed. After the tumor was excised, body weight and tumor weight were recorded. The tumor inhibition rate was calculated based on the following formula: [(average tumor weight of the control groups−average tumor weight of the experimental groups)/average tumor weight of the control groups]×100%. The data was processed statistically. The above experiments were repeated three times.
# [7] = test system: mouse grafted liver cancer H22; assay: Activity against mouse grafted liver cancer H22; format: in vivo, Kunming mice; conditions: for Tumor weight: X ± SD, n = 10
# Method: as §7
# The experiments were identical with the experiments for activity against mouse grafted sarcoma S-180, except that the cell line inoculated was liver cancer H22. The experiments were repeated three times.
# [8] = test system: mouse grafted uterine cervix cancer U14; assay: Activity against mouse grafted uterine cervix cancer U14; format: in vivo, Kunming mice; conditions: 30 mg/kg; for Tumor weight: X ± SD, n = 10
# Method: as §7
# (§8) The experiments were identical with the experiments for activity against mouse grafted sarcoma S-180, except the following:
# (1) the tumor cell line inoculated was mouse grafted uterine cervix cancer U14;
# (2) all the mice were female.
# [9] = test system: mouse lung cancer Lewis; assay: Activity against mouse grafted lung cancer Lewis; format: in vivo, Kunming mice; conditions: Lewis, 30 mg/kg; for Tumor weight: X ± SD, n = 10
# Method: as §7, §8
# (1) the tumor cell line inoculated was mouse lung cancer Lewis;
# (2) Compound 6, Compound 8 and Compound 21 were not tested for their activity;
# (3) the mice were divided into six groups.
# [10] = test system: U-937 human histocytic lymphoma; assay: In vitro inhibition rate to tumor cells (MTT), U-937; format: cell-based; conditions: Homo sapiens, U-937, 50 μg/ml, read-out: inhibition rate, Results (%) U-937
# [11] = test system: A-549 human lung adenocarcinoma; assay: In vitro inhibition rate to tumor cells (MTT), A-549; format: cell-based; conditions: Homo sapiens, A549, 50 μg/ml, read-out: inhibition rate, Results (%) A-549
# [12] = test system: Bel-7402 human hepatic carcinoma; assay: In vitro inhibition rate to tumor cells (MTT), Bel-7402; format: cell-based; conditions: Homo sapiens, Bel-7402, 50 μg/ml, read-out: inhibition rate, Results (%) Bel-7402
# [13] = test system: MCF-7 human mammary adenocarcinoma; assay: In vitro inhibition rate to tumor cells (MTT), MCF-7; format: cell-based; conditions: Homo sapiens, MCF7, 50 μg/ml, read-out: inhibition rate, Results (%) MCF-7
# [14] = test system: SMMC-7721 human hepatic carcinoma; assay: In vitro inhibition rate to tumor cells (MTT), SMMC-7721; format: cell-based; conditions: Homo sapiens, SMMC-7721, 50 μg/ml, read-out: inhibition rate, Results (%) SMMC-7721
# [15] = test system: HL-60 human promyelocytic leukemia; assay: In vitro inhibition rate to tumor cells (MTT), HL-60; format: cell-based; conditions: Homo sapiens, HL-60, 50 μg/ml, read-out: inhibition rate, Results (%) HL-60
# [16] = test system: Hela human cervical carcinoma; assay: In vitro inhibition rate to tumor cells (MTT), Hela; format: cell-based; conditions: Homo sapiens, HeLa, 50 μg/ml, read-out: inhibition rate, Results (%) Hela
# [17] = test system: LLC mouse Lewis lung carcinoma; assay: In vitro inhibition rate to tumor cells (MTT), LLC; format: cell-based; conditions: Mus musculus, Lewis lung carcinoma, 50 μg/ml
# [18] = Solubility in water (observation); format: physicochemical
# [19] = test system: influenza A virus (Jifang 90-15); assay: microbe, parasite or virus in culture; format: cell-based
# [20] = test system: MDCK (dog kidney) cells; assay: Toxicity TC50 of the samples in MDCK cells (influenza screening); conditions: concentration of 50% toxicity
# [21] = test system: influenza B virus (Jifang 97-13); assay: Screening for the activity against influenza B virus (CPE in MDCK cells)
# [22] = H22, first experiment, 30 mg/kg i.v., 6 doses
# [23] = H22, second experiment, 30 mg/kg
# [24] = H22, third experiment, 30 mg/kg
structure (smiles),measurement,setting,value
"O=c1[nH]cc(F)c(=O)[nH]1 [Compound 5-FU, reference compound]","IC50 (ug/ml) against tumor cell lines, Hela",[1],2.86 µg/mL
same,"IC50 (ug/ml) against tumor cell lines, MCF",[2],1.53 µg/mL
same,"IC50 (ug/ml) against tumor cell lines, A-549",[3],0.7 µg/mL
same,"IC50 (ug/ml) against tumor cell lines, Bel-7402",[4],0.54 µg/mL
same,"IC50 (ug/ml) against tumor cell lines, HL-60",[5],0.51 µg/mL
same,Inhibition rate (%),"[6]; S-180, first experiment",71.2%
same,Tumor weight,"[6]; S-180, first experiment",0.72 ± 0.23 g
same,Inhibition rate (%),"[6]; S-180, second experiment",69.6%
same,Tumor weight,"[6]; S-180, second experiment",0.79 ± 0.33 g
same,Average weight (g)-after administration,"[6]; mouse, in vivo, iv, 30 mg/kg",22.9 g
same,Average weight(g)-after administration,"[6]; mouse, in vivo, iv, 30 mg/kg",21.9 g
same,Inhibition rate (%),[7]; [22],60.0%
same,Tumor weight,[7]; [22],1.21 ± 0.31 g
same,Inhibition rate (%),[7]; [23],60.5%
same,Tumor weight,[7]; [23],1.19 ± 0.31 g
same,Inhibition rate (%),[7]; [24],64.2%
same,Tumor weight,[7]; [24],1.08 ± 0.31 g
same,Average weight (g)-after administration,"[7]; mouse, in vivo, 30 mg/kg",20.3 g
same,Average weight(g)-after administration,"[7]; mouse, in vivo, 30 mg/kg",21.3 g
same,Average weight(g)-after administration,"[7]; mouse, in vivo, iv, 30 mg/kg",22.3 g
same,Inhibition rate (%),"[8]; U14, first experiment",40.2%
same,Tumor weight,"[8]; U14, first experiment",2.10 ± 0.31 g
same,Inhibition rate (%),"[8]; U14, second experiment",42.6%
same,Tumor weight,"[8]; U14, second experiment",1.95 ± 0.31 g
same,Inhibition rate (%),"[8]; U14, third experiment",42.0%
same,Tumor weight,"[8]; U14, third experiment",2.10 ± 0.31 g
same,Average weight (g)-after administration,"[8]; mouse, in vivo",21.0 g
same,Average weight(g)-after administration,"[8]; mouse, in vivo",21.3 g
same,Inhibition rate (%),[9]; first experiment,55.0%
same,Tumor weight,[9]; first experiment,1.34 ± 0.31 g
same,Inhibition rate (%),[9]; second experiment,54.3%
same,Tumor weight,[9]; second experiment,1.10 ± 0.31 g
same,Inhibition rate (%),[9]; third experiment,53.7%
same,Tumor weight,[9]; third experiment,1.25 ± 0.31 g
"CC(C)C1CC23OC1(O)CC(O)(CO)C2CCC3C (centres unmarked) [Compound 32, Curcumol dihydroxy compound]",inhibition at 50 µg/mL,[10]; Table 1,65.3%
same,inhibition at 50 µg/mL,[10]; Table 2 (repeated screening),67.2%
same,inhibition at 50 µg/mL,[11]; Table 1,-12.5%
same,inhibition at 50 µg/mL,[11]; Table 2 (repeated screening),-12.5%
same,inhibition at 50 µg/mL,[12]; Table 1,4.23%
same,inhibition at 50 µg/mL,[12]; Table 2 (repeated screening),4.23%
same,inhibition at 50 µg/mL,[13]; Table 1,65.1%
same,inhibition at 50 µg/mL,[13]; Table 2 (repeated screening),65%
same,inhibition at 50 µg/mL,[14]; Table 1,80%
same,inhibition at 50 µg/mL,[14]; Table 2 (repeated screening),82.6%
same,inhibition at 50 µg/mL,[15]; Table 1,14%
same,inhibition at 50 µg/mL,[15]; Table 2 (repeated screening),13.4%
same,inhibition at 50 µg/mL,[16]; Table 1,84.3%
same,inhibition at 50 µg/mL,[16]; Table 2 (repeated screening),80.1%
same,inhibition at 50 µg/mL,[17]; Table 1,7.27%
same,inhibition at 50 µg/mL,[17]; Table 2 (repeated screening),7.05%
same,solubility in water (in words),[18],very big
NC(=O)c1ncn([C@@H]2O[C@H](CO)[C@@H](O)[C@H]2O)n1 [RBV],"IC50, influenza A virus",[19]; CPE in MDCK cells,2.06 µg/mL
same,"SI, influenza A virus",[19]; SI = TC50/IC50,970.87
same,TC50,[20],>2000 µg/mL
same,"IC50, influenza B virus",[21]; CPE in MDCK cells,6.17 µg/mL
same,"SI, influenza B virus",[21]; SI = TC50/IC50,324.15
